Like-named read-outs stand apart in the source and are kept apart here.
Legend:
[1] = tested on: Tubulin, derived from pig brain; conditions: for effect on the polymerization of tubulin (in words): increase in the latent period, decrease in the rate of polymerization, lower turbidity in the stationary state; for IC50: read-out: concentration which inhibits by 50% the polymerization of tubulin, tubulin 8.5 μM, 37° C., 30 minutes, product 0.8 to 16 μM
Description: The assembly of tubulin into microtubules results in an increase in the turbidity observed at 350 nm with the aid of spectrophotometer.

[2] = tested on: murine leukaemia cell lines P388; conditions: p388 leukaemia cells
resistant lines P388/DOX = conditions: p388 leukaemia cells

Row | IC50 [1] | IC50 ([1]; listed as 3-(3-hydroxy-4-methoxybenzyl)-7-methylene-1-vinyl-2,3,3a,4,7,7a-hexahydroinden-4) | Structure (SMILES) | effect on the polymerization of tubulin (in words) [1] | cytotoxicity [2] | cytotoxicity (resistant lines P388/DOX)
1 | < 5 nM | < 1 nM | C=CC1CC(Cc2ccc(OC)c(O)c2)C2C(=O)C=CC(=C)C12 (stereo not drawn) [formula (I), 3-(3-hydroxy-4-methoxybenzyl)-7-methylene-1-vinyl-2,3,3a,4,7,7a-hexahydroinden-4-one] | inhibition of the polymerization of tubulin | – | –
2 | – | – | C=CC1CC(Cc2ccc(OC)c(O)c2)c2c(O)ccc(C)c21 (stereo not drawn) [formula (II), 3-(3-hydroxy-4-methoxybenzyl)-4-hydroxy-7-methyl-1-vinylindan] | inhibition of the polymerization of tubulin | less than 1 μg/cm^3 | less than 1 μg/cm^3
